This is an account of results in PubChem BioAssay (NCI).

By TGI is commonly meant the concentration giving total growth inhibition. A high value points to lower sensitivity of the cells.

Among the test systems are A498 renal; A549 NSCLC; HCT-116 colon; HT29 colon; LOX IMVI melanoma; M14 melanoma; RPMI-8226 leukemia; SF-539 CNS; SK-MEL-2 melanoma; TK-10 renal; UACC-257 melanoma; RXF 393 renal; SW-620 colon.
Experiment in all cases: DTP human tumour cell line panel, 48 h

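Cultured in 96-well plates, cells were exposed to test compound for 48 hours across five concentrations. The concentration for full growth arrest is given as TGI.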

Turning to `CCCc1cn2c(/C=N/N=C(N)N)c(-c3ccc([N+](=O)[O-])cc3)nc2s1`, the concentration for total growth inhibition (TGI) in the assay on A498 renal is 10.6 µM; in the assay on A549 NSCLC it was 2.91 µM; in the assay with HCT-116 colon, 1.6 µM; in the assay with HT29 colon, more than 100 µM; in the assay with LOX IMVI melanoma it was 3.04 µM; with M14 melanoma, 3.18 µM. Also, the TGI in the assay with RPMI-8226 leukemia came to 2.76 µM; in the assay on SF-539 CNS, 9.84 µM; in the assay on SK-MEL-2 melanoma it was 3.55 µM; in the assay on TK-10 renal, 3.93 µM; with UACC-257 melanoma, 3.03 µM.
As to `CC(=O)c1ccc(Nc2nc3ccccc3c3occc23)cc1`, the concentration for total growth inhibition (TGI) was 12.3 µM in the assay with A498 renal; more than 100 µM in the assay with A549 NSCLC; 27.8 µM with HCT-116 colon; 17.3 µM with HT29 colon; 61.7 µM in the assay with LOX IMVI melanoma; 36.5 µM with M14 melanoma. Moreover, the TGI in the assay on RPMI-8226 leukemia is 29.6 µM; with SF-539 CNS, 53.4 µM; with SK-MEL-2 melanoma it was 48.6 µM; with TK-10 renal, 35.8 µM; in the assay on UACC-257 melanoma, 31.6 µM.
Consider `CCOC(=O)c1cc(C2CCN(Cc3ccccc3)C2=O)c(C(=O)/C=C(/C)N)[nH]1` (configuration not stated), for which the TGI in the assay on A498 renal, with A549 NSCLC, with HCT-116 colon, with HT29 colon, with M14 melanoma and in the assay with RPMI-8226 leukemia was more than 100 µM throughout. Further, the TGI with RXF 393 renal, in the assay on SK-MEL-2 melanoma, in the assay on SW-620 colon, in the assay on TK-10 renal and in the assay on UACC-257 melanoma was more than 100 µM throughout.
As for `CCCCCCCC(=O)OC(COC(=O)Cc1ccccc1)COC(=O)C(C)(C)C` (configuration not stated), the total growth inhibition concentration (TGI) in the assay on A498 renal, in the assay with A549 NSCLC, with HCT-116 colon, with LOX IMVI melanoma, in the assay on M14 melanoma and in the assay with RPMI-8226 leukemia was more than 100 µM each time. The TGI with SW-620 colon and in the assay on TK-10 renal was more than 100 µM in each case.
Turning to `N#C/C(=C\c1ccccc1F)C(=O)c1ccccc1`, the TGI in the assay with A498 renal, with A549 NSCLC, in the assay on HCT-116 colon, in the assay on HT29 colon, in the assay with LOX IMVI melanoma and in the assay with M14 melanoma was more than 100 µM in each case. The TGI with RPMI-8226 leukemia, in the assay with SF-539 CNS, in the assay with SK-MEL-2 melanoma, in the assay with SW-620 colon, in the assay on TK-10 renal and in the assay on UACC-257 melanoma was more than 100 µM each time.
Take `COC(=O)CCc1cc(OC)c2oc(-c3ccc(OC)c(OC)c3)c(CO)c2c1`: the TGI in the assay with A498 renal, in the assay on A549 NSCLC, in the assay on HCT-116 colon, with HT29 colon, in the assay with LOX IMVI melanoma and in the assay with M14 melanoma was more than 100 µM each time. Further, the TGI in the assay on RPMI-8226 leukemia, in the assay with SF-539 CNS, in the assay on SK-MEL-2 melanoma, in the assay with SW-620 colon, with TK-10 renal and in the assay with UACC-257 melanoma was more than 100 µM each time.
With `O=C(/C=C/c1ccc(Cl)cc1)c1nc2ccccc2[nH]1`, the TGI in the assay with A498 renal is more than 100 µM; in the assay with A549 NSCLC, more than 100 µM; with HCT-116 colon it was 36.3 µM; in the assay with HT29 colon it was 63.4 µM; in the assay on LOX IMVI melanoma, 32.6 µM; with M14 melanoma it was more than 100 µM. In addition, the TGI is 5.18 µM in the assay with RPMI-8226 leukemia; 50.6 µM in the assay with SF-539 CNS; more than 100 µM with SK-MEL-2 melanoma; 53.1 µM with SW-620 colon; 70.5 µM in the assay on TK-10 renal; more than 100 µM with UACC-257 melanoma.
As to `CCOC(=O)c1c(Br)c(-c2ccc([N+](=O)[O-])cc2)c(Br)n1C`, the TGI with A498 renal, with A549 NSCLC, in the assay with HCT-116 colon, in the assay on HT29 colon, in the assay on LOX IMVI melanoma and in the assay with M14 melanoma was more than 10 µM each time. Moreover, the TGI in the assay on RPMI-8226 leukemia, with SF-539 CNS, in the assay with SK-MEL-2 melanoma, with TK-10 renal and with UACC-257 melanoma was more than 10 µM each time.
Consider `COc1ccc2nc3c([N+](=O)[O-])ccc4c3c(c2c1)N=CN4CCN(C)C`, for which the TGI in the assay on A498 renal came to 15.4 µM; in the assay on A549 NSCLC, 19.2 µM; with HCT-116 colon, 13.6 µM; in the assay on HT29 colon, 14.4 µM; in the assay with LOX IMVI melanoma it was 14.6 µM; with M14 melanoma, 18.7 µM. The total growth inhibition concentration (TGI) in the assay on RPMI-8226 leukemia is 8.27 µM; in the assay with SF-539 CNS, 15.8 µM; with SK-MEL-2 melanoma it was 31.6 µM; in the assay with SW-620 colon it was more than 42.6 µM; in the assay on TK-10 renal, 21.1 µM; in the assay on UACC-257 melanoma, 16.1 µM.
Take `COc1ccc(C(SCCO)(c2ccc(OC)cc2)c2ccc(OC)cc2)cc1`: the TGI worked out at 40.1 µM in the assay with A498 renal; 69.3 µM in the assay with A549 NSCLC; 29.2 µM in the assay on HCT-116 colon; 46 µM in the assay on HT29 colon; 27.1 µM with LOX IMVI melanoma; 38.5 µM in the assay with M14 melanoma. Moreover, the TGI in the assay with RXF 393 renal was found to be 30.9 µM; with SF-539 CNS it was 30.6 µM; in the assay with SK-MEL-2 melanoma, 31.7 µM; in the assay with SW-620 colon, 81.1 µM; in the assay with TK-10 renal it was 55 µM; in the assay with UACC-257 melanoma, 32.5 µM.
